In test [1] the target is α-glucosidase (yeast) (Saccharomyces cerevisiae, UniProt P53341). The test can be described thus: α-glucosidase inhibition assay (p-nitrophenyl α-D-glucopyranoside substrate). It counts as biochemical. The note with it: yeast enzyme; relative to positive control DNJ. The procedure: (§1) Eight samples synthesized here were used in a biological assay against three glycosidases, namely α-glucosidase (yeast), β-glucosidase (sweet almond), and α-mannosidase (Jack bean).
(§2) After incubation for 20 min at 37 °C, the reaction was interrupted by the addition of 0.5 M sodium carbonate (100 μL). The amount of p-nitrophenol liberated was measured colorimetrically at 400 nm (optical density at 400 nm: ODtest). […] Assays for β-glucosidase and α-mannosidase were carried out as outlined above using p-nitrophenyl β-D-glucopyranoside and α-D-mannopyranoside as the substrates.

Test [2] addresses β-glucosidase (sweet almond). The test can be described thus: β-glucosidase inhibition assay (p-nitrophenyl β-D-glucopyranoside substrate). Type of test: biochemical. The note with it: sweet almond enzyme; NI = no inhibition. As for the experimental part:
as §1, §2
(§3) Assays on β-glucosidase and α-mannnosidase inhibition of synthesized carbadisaccharides 6 and 21–23 were carried out in a similar fashion.

Test [3] deals with T1, α-mannosidase (Jack bean) (Canavalia ensiformis, UniProt C0HJB3).
T1 construct: purchased Sigma-Aldrich Co. LLC. lot; 055K7047 (catalogue number not given)
T1 sequence (C0HJB3 1-981): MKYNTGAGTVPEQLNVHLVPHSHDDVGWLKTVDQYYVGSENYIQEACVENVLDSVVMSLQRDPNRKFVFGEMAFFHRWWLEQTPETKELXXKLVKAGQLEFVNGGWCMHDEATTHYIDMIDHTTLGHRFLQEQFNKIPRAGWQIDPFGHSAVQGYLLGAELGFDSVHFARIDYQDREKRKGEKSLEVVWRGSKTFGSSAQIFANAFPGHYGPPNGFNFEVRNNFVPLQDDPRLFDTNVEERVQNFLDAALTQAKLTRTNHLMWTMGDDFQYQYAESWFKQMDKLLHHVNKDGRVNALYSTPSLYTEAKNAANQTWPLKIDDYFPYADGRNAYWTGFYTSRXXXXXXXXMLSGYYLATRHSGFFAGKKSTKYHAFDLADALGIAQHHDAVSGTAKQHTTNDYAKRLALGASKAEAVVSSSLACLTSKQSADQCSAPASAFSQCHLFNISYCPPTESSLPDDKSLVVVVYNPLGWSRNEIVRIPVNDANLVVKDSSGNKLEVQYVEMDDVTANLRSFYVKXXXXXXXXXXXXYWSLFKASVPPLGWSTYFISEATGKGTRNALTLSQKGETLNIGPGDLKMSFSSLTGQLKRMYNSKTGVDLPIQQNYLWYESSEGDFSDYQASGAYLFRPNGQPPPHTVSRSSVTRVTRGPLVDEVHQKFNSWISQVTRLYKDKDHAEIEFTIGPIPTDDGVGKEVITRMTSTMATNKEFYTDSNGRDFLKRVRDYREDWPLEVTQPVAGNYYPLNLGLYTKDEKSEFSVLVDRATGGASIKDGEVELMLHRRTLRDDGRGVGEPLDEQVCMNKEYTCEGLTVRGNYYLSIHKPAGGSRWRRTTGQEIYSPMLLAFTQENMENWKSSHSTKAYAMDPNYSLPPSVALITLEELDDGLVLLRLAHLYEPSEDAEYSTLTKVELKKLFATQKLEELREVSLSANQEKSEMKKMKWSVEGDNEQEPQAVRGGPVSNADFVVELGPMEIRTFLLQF
Description: α-mannosidase inhibition assay (p-nitrophenyl α-D-mannopyranoside substrate). The note with it: Jack bean enzyme; NI = no inhibition. Type of test: biochemical. The procedure: as §1, §2, §3

Test [4] concerns melanoma cell line UACC-62. Set-up: method as in PMID 24285637, PMID 26928999. As to conditions: cited from earlier work.

What is called IC50 is the midpoint of a concentration-inhibition curve. The low end stands for greater potency, the high end for weaker potency.

α-glucosidase (yeast), sequence (P53341 whole entry): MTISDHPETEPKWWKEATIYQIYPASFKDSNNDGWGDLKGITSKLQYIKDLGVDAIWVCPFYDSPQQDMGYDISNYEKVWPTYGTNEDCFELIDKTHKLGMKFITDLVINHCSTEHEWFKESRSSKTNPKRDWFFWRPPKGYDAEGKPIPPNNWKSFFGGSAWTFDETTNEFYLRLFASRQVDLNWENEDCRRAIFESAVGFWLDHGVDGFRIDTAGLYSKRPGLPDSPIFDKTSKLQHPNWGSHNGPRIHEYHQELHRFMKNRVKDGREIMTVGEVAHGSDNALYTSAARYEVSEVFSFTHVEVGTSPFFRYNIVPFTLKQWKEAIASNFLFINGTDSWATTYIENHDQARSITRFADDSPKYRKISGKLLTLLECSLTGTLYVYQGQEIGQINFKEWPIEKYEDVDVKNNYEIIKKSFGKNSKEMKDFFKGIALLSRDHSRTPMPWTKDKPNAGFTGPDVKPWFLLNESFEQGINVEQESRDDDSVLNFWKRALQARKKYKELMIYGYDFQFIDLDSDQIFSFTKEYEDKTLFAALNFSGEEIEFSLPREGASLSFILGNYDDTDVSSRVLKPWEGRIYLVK

`COC(=O)C1=C[C@@H](O)[C@@H](O)[C@@H](O[C@@H]2C(C(=O)OC)=C[C@H](O)[C@H](O)[C@@H]2O)[C@@H]1Cl` [(−)-pericosine E (6), (3R,4R,5R,6R)-methyl 6-chloro-3,4-dihydroxy-5-{[(1R,4S,5S,6S)-4,5,6-trihydroxy-2-(methoxycarbonyl)cyclohex-2-en-1-yl]oxy}cyclohex-1-enecarboxylate]: the “α-glucosidase inhibitory potency relative to deoxynojirimycin (DNJ), fold/times” value in test [1] is “one-third”. Moreover, the IC50 in test [2] and in test [3] was > 10 mM in each case. Consider `COC(=O)C1=C[C@@H](O)[C@@H](O)[C@@H](O[C@H]2C(C(=O)OC)=C[C@@H](O)[C@@H](O)[C@H]2O)[C@@H]1Cl` [(−)-22], for which the IC50 in test [2] and in test [3] was > 10 mM in each case.

In the case of `COC(=O)C1=C[C@@H](O)[C@@H](O)[C@@H](O[C@@H]2C(C(=O)OC)=C[C@H](O)[C@H](O)[C@H]2O)[C@@H]1Cl` [(−)-21], in test [1], the “α-glucosidase inhibitory potency relative to deoxynojirimycin (DNJ), fold/times” value is “one-third”. Besides, the IC50 in test [2] and in test [3] was > 10 mM throughout. For the compound `COC(=O)C1=C[C@H](O)[C@H](O)[C@H](O[C@H]2C(C(=O)OC)=C[C@@H](O)[C@@H](O)[C@H]2O)[C@H]1Cl` [(+)-pericosine E (6)], the IC50 in test [2] and in test [3] was > 10 mM throughout.

Regarding `C=C[C@@H]1C[C@H](C)C[C@H](C)[C@H]1c1c(O)ccn(O[C@@H]2C(C(=O)OC)=C[C@@H](O)[C@@H](O)[C@H]2O)c1=O` [maximiscin], the “inhibition against melanoma cell line UACC-62” value in test [4] is “potent inhibition”. As to `COC(=O)C1=C[C@H](O)[C@H](O)[C@H](O)[C@@H]1O[C@H]1[C@@H](O)[C@@H](O)C=C(C(=O)OC)[C@@H]1Cl` [(+)-22], the IC50 in test [2] and in test [3] was > 10 mM each time.

With `COC(=O)C1=C[C@@H](O)[C@@H](O)[C@@H](O[C@H]2C(C(=O)OC)=C[C@@H](O)[C@@H](O)[C@@H]2O)[C@@H]1Cl` [(−)-23], the IC50 in test [2] and in test [3] was > 10 mM throughout. `OC[C@H]1NC[C@@H](O)[C@@H](O)[C@@H]1O` [Deoxymannojirimycin, reference compound]: in test [2], the IC50 is […]. `COC(=O)C1=C[C@H](O)[C@H](O)[C@@H](O)[C@@H]1O[C@H]1[C@@H](O)[C@@H](O)C=C(C(=O)OC)[C@@H]1Cl` [(+)-23]: the IC50 in test [2] and in test [3] was > 10 mM each time. In test [2], `OC[C@H]1NC[C@H](O)[C@@H](O)[C@@H]1O` [Deoxynojirimycin (DNJ), 1-Deoxynojirimycin, reference compound] had an IC50 of […]. On to `COC(=O)C1=C[C@H](O)[C@H](O)[C@H](O[C@H]2C(C(=O)OC)=C[C@@H](O)[C@@H](O)[C@@H]2O)[C@H]1Cl` [(+)-21], for which the IC50 in test [2] and in test [3] was > 10 mM each time.

Source of the values: publication PMC5295242, “Synthesis of Natural O-Linked Carba-Disaccharides, (+)- and (−)-Pericosine E, and Their Analogues as α-Glucosidase Inhibitors” (Marine Drugs, 2017).
